Data as given in ChEMBL document CHEMBL1132679, “Highly increased cellular accumulation of vincristine, a useful hydrophobic antitumor-drug, in multidrug-resistant solid cancer cells induced by a simply reduced taxinine” (1999).

Assay: Relative activity on the cellular accumulation of vincristine in multidrug-resistant (MDR) human ovarian cancer 2780AD cells
Type: functional, A2780 ADR

Row | Compound | Relative activity
1 | C=C1[C@@H](OC(C)=O)CC[C@@]2(C)[C@@H](OC(C)=O)[C@H](OC(C)=O)C3=C(C)C(=O)C[C@@H]([C@@H](OC(C)=O)[C@H]12)C3(C)C | 93
2 | COc1ccc(CCN(C)CCCC(C#N)(c2ccc(OC)c(OC)c2)C(C)C)cc1OC (stereo not given) [VERAPAMIL] | 100
3 | C=C1[C@@H](OC(=O)CCc2ccccc2)CC[C@@]2(C)[C@@H](OC(C)=O)[C@H](OC(C)=O)C3=C(C)C(=O)C[C@@H]([C@@H](OC(C)=O)[C@H]12)C3(C)C | 227
4 | C=C1[C@@H](OC(=O)CCC2CCCCC2)CC[C@@]2(C)[C@@H](OC(C)=O)[C@H](OC(C)=O)C3=C(C)C(=O)C[C@@H]([C@@H](OC(C)=O)[C@H]12)C3(C)C | 97
5 | CC(=O)O[C@H]1[C@@H]2[C@H](C)[C@@H](OC(=O)CCc3ccccc3)CC[C@@]2(C)[C@@H](OC(C)=O)[C@H](OC(C)=O)C2=C(C)C(=O)C[C@@H]1C2(C)C | 44
6 | CC(=O)O[C@H]1[C@@H]2[C@H](C)[C@@H](OC(=O)/C=C/c3ccccc3)CC[C@@]2(C)[C@@H](OC(C)=O)[C@H](OC(C)=O)C2=C(C)C(=O)C[C@@H]1C2(C)C | 44
7 | C=C1[C@@H](OC(=O)/C=C/c2ccccc2)CC[C@@]2(C)[C@@H](OC(C)=O)[C@H](OC(C)=O)C3=C(C)C(=O)C[C@@H]([C@@H](OC(C)=O)[C@H]12)C3(C)C | 77
8 | CC(=O)O[C@H]1[C@@H]2[C@H](C)[C@@H](O)CC[C@@]2(C)[C@@H](OC(C)=O)[C@H](OC(C)=O)C2=C(C)C(=O)C[C@@H]1C2(C)C | 48
9 | C=C1[C@@H](O)CC[C@@]2(C)[C@@H](OC(C)=O)[C@H](OC(C)=O)C3=C(C)C(=O)C[C@@H]([C@@H](OC(C)=O)[C@H]12)C3(C)C [TAXININE A] | 64
10 | C=C1[C@@H](OCOCc2ccccc2)CC[C@@]2(C)[C@@H](OC(C)=O)[C@H](OC(C)=O)C3=C(C)C(=O)C[C@@H]([C@@H](OC(C)=O)[C@H]12)C3(C)C | 158
